Biological target: T1, KIT T670I (Homo sapiens, UniProt P10721, T670I)
T1 construct: purchased Thermo Fisher Scientific (Life Technologies) SelectScreen
Assay: SelectScreen Z'LYTE
Type: biochemical
Summary of the method: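 SelectScreen broad panel; activity (Z'LYTE, Adapta) plus binding formats. ATP: Km app for CSF1R Z'LYTE; 10 for CAMK1 Adapta. Readout = % per kinase.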

T1 sequence (P10721 26-976 T670I): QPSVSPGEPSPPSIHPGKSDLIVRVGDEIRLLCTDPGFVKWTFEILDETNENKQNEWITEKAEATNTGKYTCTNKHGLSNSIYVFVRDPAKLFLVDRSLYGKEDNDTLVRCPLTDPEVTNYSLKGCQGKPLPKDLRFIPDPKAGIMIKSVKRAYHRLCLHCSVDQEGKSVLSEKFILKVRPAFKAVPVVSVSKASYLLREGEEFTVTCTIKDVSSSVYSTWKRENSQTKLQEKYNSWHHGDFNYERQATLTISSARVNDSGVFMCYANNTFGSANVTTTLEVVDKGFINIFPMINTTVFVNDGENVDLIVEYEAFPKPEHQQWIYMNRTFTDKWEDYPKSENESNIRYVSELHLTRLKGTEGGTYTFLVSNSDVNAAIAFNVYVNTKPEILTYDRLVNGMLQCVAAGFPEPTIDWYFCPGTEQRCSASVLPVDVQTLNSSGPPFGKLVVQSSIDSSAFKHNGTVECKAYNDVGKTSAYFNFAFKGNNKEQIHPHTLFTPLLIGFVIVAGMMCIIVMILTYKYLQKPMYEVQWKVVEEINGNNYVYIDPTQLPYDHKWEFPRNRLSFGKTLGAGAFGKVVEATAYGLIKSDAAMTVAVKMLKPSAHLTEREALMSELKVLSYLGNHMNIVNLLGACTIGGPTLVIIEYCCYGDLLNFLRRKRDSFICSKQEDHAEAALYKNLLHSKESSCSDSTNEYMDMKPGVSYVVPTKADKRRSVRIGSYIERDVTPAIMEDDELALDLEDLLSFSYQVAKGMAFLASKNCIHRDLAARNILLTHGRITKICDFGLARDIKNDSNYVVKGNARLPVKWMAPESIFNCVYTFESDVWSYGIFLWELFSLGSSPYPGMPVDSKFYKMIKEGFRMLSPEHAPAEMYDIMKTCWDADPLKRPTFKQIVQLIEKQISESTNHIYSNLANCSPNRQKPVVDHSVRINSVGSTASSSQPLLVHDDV

## CN(C(=O)CN1CCOCC1)c1ccc2sc3c(-c4cccc5c(=O)cc(N6CC7CCC(C6)O7)oc45)cccc3c2c1 [NU5455]
  inhibition at 1 µM: -24.4%
